US9545400B2, “Analgesic composition including opioid analgesic and P7C3” (CHONNAM NATIONAL UNIVERSITY HOSPITAL, priority 2014, dated 2017)

Columns and labels:
Sprague-Dawley rats [1] = assay: Formalin-induced pain test (flinching) after intrathecal administration; assay type: in vivo, rat; conditions: for ED50 (dose which decreases the formalin response of the control by 50%), Phase 1 / ED50 (dose which decreases the formalin response of the control by 50%), Phase 2: drug alone, intrathecal 10 min before formalin injection, rat; for ED50 (dose which decreases the formalin response of the control by 50%), Phase 1: Phase 1 (0 to 9 min); for ED50 (dose which decreases the formalin response of the control by 50%), Phase 2: Phase 2 (10 to 60 min); for Ratio of ED50 in Phase 1 to ED50 in Phase 2: formalin experiment; for Ratio of ED50 in Phase 1 to ED50 in Phase 2 / Flinching reactions, dose-response (percentage of control) / Number of flinches over time at the highest dose: intrathecal; for Flinching reactions, dose-response (percentage of control): Phase 1 and Phase 2, FIGS. 2A and 2B; for Number of flinches over time at the highest dose: FIGS. 1A and 1B
Experimental: (§1) After permission for all the procedures in the experimental protocol was obtained by The Institutional Animal Care and Use Committee of Chonnam National University, experiments were performed. Adult male Sprague-Dawley rats (250 to 300 g) were used as the experimental subject, four rats per group were housed and kept in a well-controlled vivarium, maintained at 22° C. for 12 hours, with an alternating light/dark cycle and were given food and water ad libitum. Rats were under sevoflurance anesthesia in order to be implanted with an intrathecal catheter, and placed in a stereotaxic apparatus A polyethylene catheter lower end portion was intrathecally inserted so as to be positioned within the lumbar extension portion through an incision in the cisternal membrane. Then, the catheter upper end portion was secured at the skull. After the catheter implantation, rats were again housed in individual cages. After the intrathecal catheter implantation, rats showing movement disorder were excluded in the experiment, and killed by administering an overdose of sevoflurane. Rats showing normal responses were again housed in individual cages in the vivarium, and given a recovery time of 5 days.
A formalin experiment was used as a pain evoking experimental tool. 50 μL of a 5% formalin solution was injected subcutaneously into the subcutaneous tissue of a hind paw of the rat. […] The number of flinches was counted for 1 min periods at 1 and 5 min and at 5 min intervals from 10 to 60 min after the injection. […] Therefore, the phase from 0 to 9 minutes after the injection of formalin was defined as Phase 1, and the phase from 10 to 60 minutes was defined as Phase 2. After the behavior study, rats were administered an overdose of sevoflurane, and then killed.
The effect of the experimental drug for the formalin injection was tested for 5 days after the intrathecal catheter implantation. After acclimatization for 15 to 20 min in a restraint cylinder (10×10×30 cm), the rats were allocated to receive one of the experimental drugs, and tested only once. The same volume of the vehicle (saline, 0.1 N NaOH or DMSO) was administered to a control. The total number of rats used in the nociceptive behavioral study was 139 with 6 to 8 rats per group. The investigators were blind as to the administration amount and type of experimental drug used in each rat.
Saline, 10, 30, and 100 μg of P7C3 (Tocris Cookson Ltd., Bristol, UK), and 1, 3, 10, and 30 μg of morphine sulfate (Sigma-Aldrich, St. Louis, Mo., USA) were intrathecally administered 10 minutes before formalin injection, and analgesic effects (flinching number analysis) were investigated according to the aforementioned pain experiment. The drug was intrathecally administered by using a manually gear operated syringe pump. All the drugs were administered in an amount of 10 μl, and an additional 10 μl of standard saline was administered in order to wash out the catheter.
The dose (ED50), which decreases the formalin response of the control for P7C3 and morphine by 50%, was determined at Phase 1 and the Phase 2, respectively.
And then, ED50 of the mixed drug was obtained. The experiment was performed individually in Phase 1 and Phase 2.
Data obtained in Examples 1 and 2 were expressed as means±SEM. The time response data are presented as the number of flinches. The dose-response data are presented as a percentage of the control. Percentage of the control=(total number of flinches in drug administration group in Phase 1[2]/number of flinches of control in Phase 1[2])×100

Sprague-Dawley rats [2] = assay: Evaluation of response of intrathecal administration of P7C3 (motor function and pinna/corneal reflexes); assay type: in vivo, rat; conditions: highest dose (100 μg) intrathecal, 5 rats
Experimental: as §1, with “After the intrathecal catheter implantation, rats showing movement disorder were excluded in the experiment, and killed by administering an overdose of sevoflurane. Rats showing normal responses were again housed in individual cages in the vivarium, and given a recovery time of 5 days.” left out
In order to detect undesirable behaviors induced by P7C3, the highest dose (100 μg) was intrathecally administered to 5 rats of each individual group. Motor function was assessed by the placing-stepping reflex and the righting reflex. […] The latter was evaluated by placing the rat horizontally with the rat's back on the table. […] The central nervous system was evaluated through pinna and corneal reflexes. […]

SMILES | ED50 (dose which decreases the formalin response of the control by 50%), Phase 1 (Sprague-Dawley rats [1]) | ED50 (dose which decreases the formalin response of the control by 50%), Phase 2 (Sprague-Dawley rats [1]) | Ratio of ED50 in Phase 1 to ED50 in Phase 2 (Sprague-Dawley rats [1]) | Flinching reactions, dose-response (percentage of control) (Sprague-Dawley rats [1]) | Number of flinches over time at the highest dose (Sprague-Dawley rats [1]) | Normality of behavior: placing-stepping, righting, pinna and corneal reflexes (Sprague-Dawley rats [2])
CN1CC[C@]23c4c5ccc(O)c4O[C@H]2[C@@H](O)C=C[C@H]3[C@H]1C5 [Morphine, (5α,6α)-7,8-didehydro-4,5-epoxy-17-methylmorphinan-3,6-diol, reference compound] | 8.8 µg | 3.9 µg | two times larger | suppressed flinching reactions dose-dependently | exhibited potential analgesic effects throughout the entire observation period | –
OC(CNc1ccccc1)Cn1c2ccc(Br)cc2c2cc(Br)ccc21 (centres unmarked) [P7C3, 1-(3,6-dibromo-9H-carbazol-9-yl)-3-(phenylamino)propan-2-ol] | 31.8 µg | 31 µg | similar | suppressed flinching reactions dose-dependently | exhibited potential analgesic effects throughout the entire observation period | all normal (present)
